Values of other authors in US20170232011A1, “PHARMACEUTICAL COMPOSITION AND METHOD FOR THE TREATMENT OF URINARY TRACT INFECTIONS” (priority 2016, published 2017).

Columns and labels:
[1] = 100 mg oral dose
[2] = system: Coagulase negative staphylococci
[3] = system: Staphylococcus saprophyticus

| SMILES | activity against Citrobacter species (Citrobacter species) | activity against Klebsiella species (Klebsiella species) | activity against Staphylococcus aureus (Staphylococcus aureus) | plasma levels ([1]; plasma) | level in the urine ([1]; urine) [µg/mL] | activity against Streptococcus agalactiae (Streptococcus agalactiae) | activity against Enterococcus faecalis (Enterococcus faecalis) | activity against E. coli (E. coli) | activity against Coagulase negative staphylococci [2] | activity against Staphylococcus saprophyticus [3] | oral dose excreted directly into the urine chemically unchanged [%] |
| --- | --- | --- | --- | --- | --- | --- | --- | --- | --- | --- | --- |
| O=C1CN(N=Cc2ccc([N+](=O)[O-])o2)C(=O)N1 [Nitrofurantoin, 1-[[[5-nitro-2-furanyl]methylene]amino]-2,4-imidazolidinedione] | good activity | good activity | good activity | less than 1 μg/ml | 200 | good activity | good activity | good activity | good activity | good activity | – |
| Nc1ccc(N=Nc2ccccc2)c(N)n1 [Phenazopyridine, 3-phenyldiazenylpyridine-2,6-diamine] | – | – | – | – | – | – | – | – | – | – | ~65 |
